Consider 7 molecules from ChEMBL document CHEMBL1201862, “PubChem BioAssay data set” (2004).

Calls of active or inactive are those of the source.

Test [1] addresses Melanin-concentrating hormone receptor 1 (Homo sapiens, UniProt Q99705). Description: Late-stage fluorescence-based counterscreen for antagonists of the G-protein coupled receptor 7 (GPR7): cell-based dose response assay to identify antagonists of the melanin-concentrating hormone receptor 1 (MCHR1). [Related pubchem assays (depositor defined):AID1861, AID1880, AID1952, AID2148, AID2251, AID2257, AID485339]. In kind it is functional. A general note: The purpose of a counterscreen is to sort out artefacts and off-target activity.

Test [2] deals with T1, Neuropeptides B/W receptor type 1 (Homo sapiens, UniProt P48145).
T1 sequence (P48145 whole entry): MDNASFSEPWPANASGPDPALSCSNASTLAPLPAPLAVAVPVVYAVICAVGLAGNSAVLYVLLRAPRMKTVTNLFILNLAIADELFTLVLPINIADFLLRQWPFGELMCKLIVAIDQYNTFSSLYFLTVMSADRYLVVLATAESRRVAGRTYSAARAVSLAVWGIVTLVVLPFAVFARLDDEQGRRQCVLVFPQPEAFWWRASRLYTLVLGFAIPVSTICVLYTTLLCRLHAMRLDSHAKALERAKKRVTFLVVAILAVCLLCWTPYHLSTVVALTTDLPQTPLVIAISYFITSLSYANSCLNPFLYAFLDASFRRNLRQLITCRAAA
Description: GPR7 antagonist potency, late-stage follow-up, cell-based, fluorescence, dose response (AID 463251). In kind it is functional.

The target in the next test is ORF 73 (Human herpesvirus 8, UniProt O40947). Description: inhibitors of C-LANA binding to LBS DNA, dose response, biochemical, fluorescence polarization, cherry-picked samples (AID 504725).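 Further: fluorescence polarization of a labeled DNA duplex reporting LANA DNA binding; potency is for inhibitors that block LANA binding to the DNA.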 Set-up: species or system Human gammaherpesvirus 8. (In fluorescence polarisation assays a small probe gives low polarisation when free and higher when bound to something large.)

Test [3] addresses Intestinal-type alkaline phosphatase (Mus musculus, UniProt P24822). Description: PubChem AID 488785. In kind it is functional.
Test [4] addresses T2, Alkaline phosphatase, tissue-nonspecific isozyme (Homo sapiens, UniProt P05186).
T2 sequence (P05186 whole entry): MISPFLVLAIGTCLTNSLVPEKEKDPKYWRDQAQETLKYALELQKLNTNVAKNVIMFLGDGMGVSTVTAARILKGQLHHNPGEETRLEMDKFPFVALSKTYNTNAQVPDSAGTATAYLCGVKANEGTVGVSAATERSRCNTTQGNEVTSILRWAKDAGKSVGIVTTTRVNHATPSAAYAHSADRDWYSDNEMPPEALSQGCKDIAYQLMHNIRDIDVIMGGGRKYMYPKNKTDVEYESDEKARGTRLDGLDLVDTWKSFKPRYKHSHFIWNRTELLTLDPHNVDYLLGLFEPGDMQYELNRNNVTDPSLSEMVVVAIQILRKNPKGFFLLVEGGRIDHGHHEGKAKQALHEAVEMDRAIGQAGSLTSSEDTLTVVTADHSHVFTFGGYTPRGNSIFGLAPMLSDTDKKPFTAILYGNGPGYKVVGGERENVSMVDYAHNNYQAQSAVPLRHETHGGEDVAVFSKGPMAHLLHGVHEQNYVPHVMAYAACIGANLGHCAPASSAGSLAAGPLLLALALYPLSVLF
Description: TNAP enzyme inhibition by screening hits, dose response, selectivity assay for mouse IAP inhibitor project, biochemical, human TNAP, uHTS hits (AID 488906). In kind it is functional.

For test [5], the target named is Intestinal-type alkaline phosphatase (Homo sapiens, UniProt P09923). Description: inhibition of human intestinal alkaline phosphatase – biochemical, dose response (AID 488876). In kind it is functional.
Test [6] addresses T3, Histone-lysine N-methyltransferase NSD2 (Homo sapiens, UniProt O96028).
T3 sequence (O96028 whole entry): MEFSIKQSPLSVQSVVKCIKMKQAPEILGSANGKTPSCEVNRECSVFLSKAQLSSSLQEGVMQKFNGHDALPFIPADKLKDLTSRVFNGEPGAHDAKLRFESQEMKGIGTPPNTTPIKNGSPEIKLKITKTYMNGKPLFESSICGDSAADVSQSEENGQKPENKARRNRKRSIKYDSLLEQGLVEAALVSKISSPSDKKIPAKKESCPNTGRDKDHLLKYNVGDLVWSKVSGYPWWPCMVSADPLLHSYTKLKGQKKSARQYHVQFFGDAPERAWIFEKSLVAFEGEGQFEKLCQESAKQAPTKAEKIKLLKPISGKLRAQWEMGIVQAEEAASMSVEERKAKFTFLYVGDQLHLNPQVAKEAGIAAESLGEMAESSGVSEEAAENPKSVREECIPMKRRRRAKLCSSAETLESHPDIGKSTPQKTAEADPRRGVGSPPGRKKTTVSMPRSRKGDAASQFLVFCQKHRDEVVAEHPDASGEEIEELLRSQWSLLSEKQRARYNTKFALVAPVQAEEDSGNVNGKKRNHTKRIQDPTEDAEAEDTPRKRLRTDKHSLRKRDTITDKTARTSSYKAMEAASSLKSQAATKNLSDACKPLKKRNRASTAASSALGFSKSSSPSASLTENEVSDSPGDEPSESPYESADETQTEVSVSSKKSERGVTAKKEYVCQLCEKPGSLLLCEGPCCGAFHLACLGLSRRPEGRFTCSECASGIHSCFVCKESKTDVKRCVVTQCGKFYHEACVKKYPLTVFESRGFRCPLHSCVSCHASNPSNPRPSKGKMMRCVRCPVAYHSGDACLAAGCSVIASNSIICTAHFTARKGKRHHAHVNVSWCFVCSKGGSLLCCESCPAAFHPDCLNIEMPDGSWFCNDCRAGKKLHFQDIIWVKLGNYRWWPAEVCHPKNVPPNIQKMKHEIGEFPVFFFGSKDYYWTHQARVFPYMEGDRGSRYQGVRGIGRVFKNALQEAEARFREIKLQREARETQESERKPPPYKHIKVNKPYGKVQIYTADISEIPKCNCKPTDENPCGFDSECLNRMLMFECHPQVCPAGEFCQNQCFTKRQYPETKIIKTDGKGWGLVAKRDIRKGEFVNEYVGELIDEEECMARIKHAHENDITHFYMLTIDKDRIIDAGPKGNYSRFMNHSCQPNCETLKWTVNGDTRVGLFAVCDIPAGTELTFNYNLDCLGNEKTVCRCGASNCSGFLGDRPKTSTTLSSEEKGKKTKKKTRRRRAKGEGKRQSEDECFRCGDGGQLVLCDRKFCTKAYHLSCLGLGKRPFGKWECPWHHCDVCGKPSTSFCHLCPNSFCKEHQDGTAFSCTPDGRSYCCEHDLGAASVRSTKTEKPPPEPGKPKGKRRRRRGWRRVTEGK
In kind it is biochemical.

For test [7], the target named is 1-phosphatidylinositol 4,5-bisphosphate phosphodiesterase gamma-1 (Homo sapiens, UniProt P19174). Description: Counterscreen for inhibitors of phospholipase C isozymes (PLC-B3): Fluorescence-based biochemical high throughput dose response assay to identify inhibitors of phospholipase C isozymes (PLC-gamma1).
Test [8] concerns the target 1-phosphatidylinositol 4,5-bisphosphate phosphodiesterase beta-3 (Homo sapiens, UniProt Q01970). Description: Fluorescence-based biochemical high throughput dose response assay to identify inhibitors of phospholipase C isozymes (PLC-B3).
A further test addresses T4, Caspase-3 (Homo sapiens, UniProt P42574).
T4 sequence (P42574 whole entry): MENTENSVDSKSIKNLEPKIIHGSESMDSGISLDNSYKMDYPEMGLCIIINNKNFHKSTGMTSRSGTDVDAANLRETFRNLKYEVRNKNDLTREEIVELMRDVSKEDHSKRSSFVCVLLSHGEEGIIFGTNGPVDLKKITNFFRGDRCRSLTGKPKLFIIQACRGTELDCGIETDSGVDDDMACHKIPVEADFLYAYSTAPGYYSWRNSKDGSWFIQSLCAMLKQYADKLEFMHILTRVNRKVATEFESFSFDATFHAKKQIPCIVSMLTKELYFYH
Description: procaspase-3 activators, dose response, biochemical, absorbance (AID 489014).

The target of the next test is Caspase-7 (Homo sapiens, UniProt P55210). Description: procaspase-7 activators, dose response, counter-screen for procaspase-3 activator project, biochemical, absorbance (AID 489013).
The target in the next test is Beta-galactosidase (Escherichia coli, UniProt Q8VNN2). Description: beta-galactosidase enzyme inhibitors and activators, dose response, artefact control for CCR6 antagonist project, biochemical, E. coli enzyme, set 3 (AID 504712). In kind it is functional.
Test [9] has as its target Potassium voltage-gated channel subfamily KQT member 2 (Rattus norvegicus, UniProt O88943). Description: retigabine-insensitive KCNQ2 potentiators, concentration-response, dose response, cell-based, retigabine-insensitive compounds (AID 2654). In kind it is functional.
In test [10] the target is DNA dC->dU-editing enzyme APOBEC-3A (Homo sapiens, UniProt P31941). Description: APOBEC3A DNA deaminase inhibitors, dose response, biochemical (AID 504722). In kind it is functional.
For test [11], the target named is Glucose-6-phosphate 1-dehydrogenase (Homo sapiens, UniProt P11413). Description: human G6PD enzyme inhibitors, dose response, selectivity assay for P. falciparum G6PD inhibitor project, biochemical, fluorescence (AID 504792). In kind it is functional.
In the next test the target is Phosphomannomutase 2 (Homo sapiens, UniProt O15305). Description: Counter screen SAR assay for PMM2 inhibitors via a fluorescence intensity assay. [Related pubchem assays (depositor defined):AID1545, AID1574].
In test [12] the target is Phosphoethanolamine/phosphocholine phosphatase (Homo sapiens, UniProt Q8TCT1). Description: SAR assay for compounds that inhibit PHOSPHO1. [Related pubchem assays (depositor defined):AID1545, AID1565, AID1574].
Test [13] has as its target DNA dC->dU-editing enzyme APOBEC-3G (Homo sapiens, UniProt Q9HC16). Description: Dose Response confirmation of small molecule APOBEC3G DNA Deaminase Inhibitors via a fluorescence-based single-stranded DNA deaminase assay. [Related pubchem assays (depositor defined):AID493012, AID493028]. In kind it is functional.
Test [14] has as its target T2, Alkaline phosphatase, tissue-nonspecific isozyme. Description: human TNAP enzyme inhibitors, SAR follow-up, biochemical, luminescent, dose response (AID 1056).
Test [15] deals with T5, Short transient receptor potential channel 4 (Mus musculus, UniProt Q9QUQ5).
T5 sequence (Q9QUQ5 whole entry): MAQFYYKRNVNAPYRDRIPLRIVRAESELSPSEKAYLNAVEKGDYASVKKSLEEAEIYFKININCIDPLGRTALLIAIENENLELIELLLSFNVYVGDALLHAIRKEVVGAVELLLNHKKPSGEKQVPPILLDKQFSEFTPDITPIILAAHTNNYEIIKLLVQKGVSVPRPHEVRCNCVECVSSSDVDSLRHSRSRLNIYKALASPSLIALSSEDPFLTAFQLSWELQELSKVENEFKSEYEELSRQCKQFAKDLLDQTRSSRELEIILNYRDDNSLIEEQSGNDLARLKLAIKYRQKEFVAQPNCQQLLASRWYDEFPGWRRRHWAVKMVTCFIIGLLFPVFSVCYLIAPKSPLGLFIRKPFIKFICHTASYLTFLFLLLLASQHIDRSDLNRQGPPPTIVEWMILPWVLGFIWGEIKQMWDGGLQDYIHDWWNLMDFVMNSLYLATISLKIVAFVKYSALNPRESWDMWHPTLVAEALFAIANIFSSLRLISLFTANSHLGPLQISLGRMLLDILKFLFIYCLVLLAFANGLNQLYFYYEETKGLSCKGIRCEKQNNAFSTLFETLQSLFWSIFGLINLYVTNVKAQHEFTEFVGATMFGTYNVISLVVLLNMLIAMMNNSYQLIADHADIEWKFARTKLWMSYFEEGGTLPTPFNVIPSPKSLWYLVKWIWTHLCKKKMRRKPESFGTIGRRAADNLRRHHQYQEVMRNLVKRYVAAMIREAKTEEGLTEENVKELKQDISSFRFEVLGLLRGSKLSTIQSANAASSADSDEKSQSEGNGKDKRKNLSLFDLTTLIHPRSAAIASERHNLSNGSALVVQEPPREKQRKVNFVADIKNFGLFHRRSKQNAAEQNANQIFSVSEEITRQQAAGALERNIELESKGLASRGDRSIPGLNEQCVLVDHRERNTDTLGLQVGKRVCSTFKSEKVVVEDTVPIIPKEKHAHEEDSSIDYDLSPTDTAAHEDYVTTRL
Description: TRPC4 positive allosteric modulators, dose response, cell-based, HEK293 TRPC4/mu-opioid, Fluo-4 calcium, EC20 DAMGO (AID 434941).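 Further: HEK293 cells coexpressing TRPC4 and mu opioid receptor stimulated by EC20 DAMGO.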 In kind it is functional.

Glucose-6-phosphate 1-dehydrogenase, sequence (P11413 whole entry): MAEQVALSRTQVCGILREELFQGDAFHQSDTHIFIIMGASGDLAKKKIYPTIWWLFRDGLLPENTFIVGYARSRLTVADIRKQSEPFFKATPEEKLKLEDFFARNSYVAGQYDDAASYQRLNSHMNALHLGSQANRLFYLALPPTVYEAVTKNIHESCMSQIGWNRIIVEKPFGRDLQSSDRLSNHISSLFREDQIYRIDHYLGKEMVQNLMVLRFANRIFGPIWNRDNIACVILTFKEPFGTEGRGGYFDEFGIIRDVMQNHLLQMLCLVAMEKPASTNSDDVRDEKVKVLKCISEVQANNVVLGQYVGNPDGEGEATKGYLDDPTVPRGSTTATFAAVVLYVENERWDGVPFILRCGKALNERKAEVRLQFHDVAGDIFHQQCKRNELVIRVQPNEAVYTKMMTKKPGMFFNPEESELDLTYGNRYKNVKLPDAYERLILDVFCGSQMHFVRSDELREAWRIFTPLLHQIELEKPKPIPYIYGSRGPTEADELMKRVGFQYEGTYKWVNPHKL
Phosphomannomutase 2, sequence (O15305 whole entry): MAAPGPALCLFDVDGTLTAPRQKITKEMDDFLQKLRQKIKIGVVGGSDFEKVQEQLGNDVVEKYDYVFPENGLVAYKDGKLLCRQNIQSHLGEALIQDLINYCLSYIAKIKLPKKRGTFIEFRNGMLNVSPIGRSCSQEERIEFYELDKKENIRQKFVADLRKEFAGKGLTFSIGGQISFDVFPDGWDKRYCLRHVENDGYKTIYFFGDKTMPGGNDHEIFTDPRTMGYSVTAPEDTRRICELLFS
Phosphoethanolamine/phosphocholine phosphatase, sequence (Q8TCT1 whole entry): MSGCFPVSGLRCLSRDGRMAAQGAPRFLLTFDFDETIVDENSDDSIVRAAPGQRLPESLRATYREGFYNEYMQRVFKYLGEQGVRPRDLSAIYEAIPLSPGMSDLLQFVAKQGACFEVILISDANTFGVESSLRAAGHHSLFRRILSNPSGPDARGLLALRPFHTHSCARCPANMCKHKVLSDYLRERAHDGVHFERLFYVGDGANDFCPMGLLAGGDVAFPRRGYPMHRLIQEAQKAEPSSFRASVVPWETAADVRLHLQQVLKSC
DNA dC->dU-editing enzyme APOBEC-3A, sequence (P31941 whole entry): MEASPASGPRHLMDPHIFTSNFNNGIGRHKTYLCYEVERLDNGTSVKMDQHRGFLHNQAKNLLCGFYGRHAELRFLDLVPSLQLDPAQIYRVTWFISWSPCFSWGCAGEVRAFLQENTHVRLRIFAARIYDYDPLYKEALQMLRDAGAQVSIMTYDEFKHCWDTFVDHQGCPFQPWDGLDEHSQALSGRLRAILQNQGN
Intestinal-type alkaline phosphatase (Homo sapiens, UniProt P09923), sequence (P09923 whole entry): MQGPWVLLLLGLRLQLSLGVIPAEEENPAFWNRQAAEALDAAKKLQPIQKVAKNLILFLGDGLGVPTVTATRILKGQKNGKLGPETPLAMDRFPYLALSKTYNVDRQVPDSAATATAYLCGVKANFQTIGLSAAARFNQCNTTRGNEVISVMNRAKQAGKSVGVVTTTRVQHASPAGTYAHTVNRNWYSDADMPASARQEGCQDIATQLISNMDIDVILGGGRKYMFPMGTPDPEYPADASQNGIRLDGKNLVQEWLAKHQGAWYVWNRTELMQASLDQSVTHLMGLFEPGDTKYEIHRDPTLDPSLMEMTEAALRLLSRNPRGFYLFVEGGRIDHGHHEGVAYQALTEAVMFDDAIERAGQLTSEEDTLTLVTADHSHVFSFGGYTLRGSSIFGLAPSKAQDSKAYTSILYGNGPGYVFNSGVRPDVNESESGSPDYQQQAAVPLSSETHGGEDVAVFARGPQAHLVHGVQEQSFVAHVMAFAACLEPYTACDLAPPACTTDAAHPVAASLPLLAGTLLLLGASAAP
Intestinal-type alkaline phosphatase (Mus musculus, UniProt P24822), sequence (P24822 whole entry): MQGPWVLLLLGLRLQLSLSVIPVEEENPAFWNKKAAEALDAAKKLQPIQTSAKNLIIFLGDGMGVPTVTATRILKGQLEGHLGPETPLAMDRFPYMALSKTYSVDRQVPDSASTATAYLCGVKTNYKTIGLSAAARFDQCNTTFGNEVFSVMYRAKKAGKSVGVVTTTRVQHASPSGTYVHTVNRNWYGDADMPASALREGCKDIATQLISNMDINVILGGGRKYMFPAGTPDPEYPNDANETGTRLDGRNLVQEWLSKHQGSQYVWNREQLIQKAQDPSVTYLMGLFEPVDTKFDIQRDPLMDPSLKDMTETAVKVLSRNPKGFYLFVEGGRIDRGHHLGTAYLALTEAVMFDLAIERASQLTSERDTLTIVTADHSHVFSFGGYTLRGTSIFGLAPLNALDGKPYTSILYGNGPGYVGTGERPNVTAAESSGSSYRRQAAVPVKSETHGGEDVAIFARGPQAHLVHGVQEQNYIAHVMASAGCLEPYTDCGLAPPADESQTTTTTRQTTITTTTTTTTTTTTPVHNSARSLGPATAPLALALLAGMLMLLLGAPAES
DNA dC->dU-editing enzyme APOBEC-3G, sequence (Q9HC16 whole entry): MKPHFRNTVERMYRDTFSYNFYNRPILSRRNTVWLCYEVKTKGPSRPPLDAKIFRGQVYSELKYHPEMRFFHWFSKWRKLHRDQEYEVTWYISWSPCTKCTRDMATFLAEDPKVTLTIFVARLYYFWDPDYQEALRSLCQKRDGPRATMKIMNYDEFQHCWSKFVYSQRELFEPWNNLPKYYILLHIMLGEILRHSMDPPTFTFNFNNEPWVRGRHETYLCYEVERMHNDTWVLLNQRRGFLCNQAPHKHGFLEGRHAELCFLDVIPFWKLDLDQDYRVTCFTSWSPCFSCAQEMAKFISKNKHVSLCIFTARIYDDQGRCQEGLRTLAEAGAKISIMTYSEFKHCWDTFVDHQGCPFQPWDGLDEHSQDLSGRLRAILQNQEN
Beta-galactosidase, sequence (Q8VNN2 whole entry): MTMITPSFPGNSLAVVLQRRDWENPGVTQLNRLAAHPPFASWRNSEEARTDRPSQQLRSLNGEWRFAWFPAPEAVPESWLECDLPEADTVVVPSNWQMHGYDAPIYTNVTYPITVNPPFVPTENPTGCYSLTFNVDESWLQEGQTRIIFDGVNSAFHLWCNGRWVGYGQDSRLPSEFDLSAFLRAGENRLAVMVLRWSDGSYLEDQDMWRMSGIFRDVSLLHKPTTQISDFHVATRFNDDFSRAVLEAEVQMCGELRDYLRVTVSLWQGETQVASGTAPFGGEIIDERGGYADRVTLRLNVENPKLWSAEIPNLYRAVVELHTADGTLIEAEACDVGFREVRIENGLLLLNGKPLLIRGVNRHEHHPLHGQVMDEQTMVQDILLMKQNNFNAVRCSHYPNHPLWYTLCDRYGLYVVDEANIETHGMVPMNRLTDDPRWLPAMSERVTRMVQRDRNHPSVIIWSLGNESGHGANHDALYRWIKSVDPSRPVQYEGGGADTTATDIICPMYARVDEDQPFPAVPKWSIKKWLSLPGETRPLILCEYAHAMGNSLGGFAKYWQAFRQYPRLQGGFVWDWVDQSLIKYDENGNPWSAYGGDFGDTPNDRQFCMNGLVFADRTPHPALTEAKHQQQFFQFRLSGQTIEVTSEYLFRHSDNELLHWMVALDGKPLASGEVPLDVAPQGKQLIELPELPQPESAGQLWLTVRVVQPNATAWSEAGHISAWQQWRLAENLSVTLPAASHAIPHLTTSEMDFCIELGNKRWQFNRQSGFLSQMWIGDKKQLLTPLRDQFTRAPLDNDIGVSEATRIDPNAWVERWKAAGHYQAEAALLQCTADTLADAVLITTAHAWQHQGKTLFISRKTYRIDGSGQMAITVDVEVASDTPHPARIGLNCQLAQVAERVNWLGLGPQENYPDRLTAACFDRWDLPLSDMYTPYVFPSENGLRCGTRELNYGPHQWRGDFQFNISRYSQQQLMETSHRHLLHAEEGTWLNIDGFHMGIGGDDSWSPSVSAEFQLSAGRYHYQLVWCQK
1-phosphatidylinositol 4,5-bisphosphate phosphodiesterase beta-3, sequence (Q01970 whole entry): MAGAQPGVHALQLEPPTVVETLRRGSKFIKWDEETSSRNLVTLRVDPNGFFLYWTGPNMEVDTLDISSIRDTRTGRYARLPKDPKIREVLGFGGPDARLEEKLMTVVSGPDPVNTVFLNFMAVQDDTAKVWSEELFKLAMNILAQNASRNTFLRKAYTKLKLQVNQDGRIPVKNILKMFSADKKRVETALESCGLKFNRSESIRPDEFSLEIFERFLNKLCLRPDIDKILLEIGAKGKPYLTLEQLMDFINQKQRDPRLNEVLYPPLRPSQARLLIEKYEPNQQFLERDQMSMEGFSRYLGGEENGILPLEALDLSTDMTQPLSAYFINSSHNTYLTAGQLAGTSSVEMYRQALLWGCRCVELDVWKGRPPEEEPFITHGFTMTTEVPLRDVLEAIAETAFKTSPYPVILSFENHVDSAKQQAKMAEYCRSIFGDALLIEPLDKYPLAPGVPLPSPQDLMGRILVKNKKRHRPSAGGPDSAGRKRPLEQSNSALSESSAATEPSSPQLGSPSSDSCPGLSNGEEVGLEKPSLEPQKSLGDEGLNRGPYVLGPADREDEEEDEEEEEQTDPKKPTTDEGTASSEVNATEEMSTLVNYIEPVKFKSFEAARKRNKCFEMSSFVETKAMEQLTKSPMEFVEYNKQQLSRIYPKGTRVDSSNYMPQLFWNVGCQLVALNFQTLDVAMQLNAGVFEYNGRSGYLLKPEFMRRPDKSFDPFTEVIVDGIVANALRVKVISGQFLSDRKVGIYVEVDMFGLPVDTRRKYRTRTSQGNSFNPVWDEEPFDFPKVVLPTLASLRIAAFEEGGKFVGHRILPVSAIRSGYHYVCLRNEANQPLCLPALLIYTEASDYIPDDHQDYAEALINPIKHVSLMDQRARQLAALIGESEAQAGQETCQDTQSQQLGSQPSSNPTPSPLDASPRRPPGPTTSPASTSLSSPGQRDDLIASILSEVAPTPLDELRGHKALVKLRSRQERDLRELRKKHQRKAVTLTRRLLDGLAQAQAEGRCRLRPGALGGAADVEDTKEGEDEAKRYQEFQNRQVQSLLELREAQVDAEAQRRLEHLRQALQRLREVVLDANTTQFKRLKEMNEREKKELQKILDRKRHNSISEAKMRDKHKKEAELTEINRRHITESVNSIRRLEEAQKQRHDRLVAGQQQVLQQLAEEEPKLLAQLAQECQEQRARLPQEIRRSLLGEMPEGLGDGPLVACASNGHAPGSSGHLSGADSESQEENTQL

In the case of `CC(C)c1ccc(-n2ncc(Cl)c(Oc3ccc(Cl)cc3)c2=O)cc1`, the IC50 in test [1] is 5.7 µM (active); in [2], 1.4 µM (active).
`O=C(CCCN1C(=O)/C(=C\c2ccco2)SC1=S)Nc1ccc(O)cc1C(=O)O`: the figures for the AC50 (at ORF 73; in test [6]) were 47.2 µM (active) and 16.1 µM (active), respectively. For the same molecule, the IC50 in [3] is 6.43 µM (active); in test [4] it was > 100 µM (inactive); in test [5] it was > 100 µM (inactive); in test [7], > 122 µM (inactive); in test [8], > 122 µM (inactive).
Take `CC1(C)CC(=O)C2=C(C1)c1c(ccc3ccccc13)NC2c1ccc(Br)o1` (stereo not given): the EC50 on Caspase-3 and at Caspase-7 was > 85.2 µM (inactive) throughout.
For `CCCOc1cccc(C(=O)NC(=S)Nc2cccc(C(F)(F)F)c2)c1`, the IC50 on Beta-galactosidase was > 66.6 µM (inactive).
With `Cc1cc(C)cc(NC(=O)Nc2cccnc2)c1`, the half-maximal effective concentration (EC50) in [9] was 10.7 µM (active).
Turning to `O=c1c2cc(F)ccc2sn1-c1ccc(F)cc1`, the IC50 in test [10] was > 100 µM (inactive); in test [11], 16.7 µM (active); at Phosphomannomutase 2, 86.9 µM (active); in test [12] it was > 10 µM (inactive); in test [13], 15.5 µM (active); in test [14] it was > 100 µM (inactive).
Turning to `COc1ccc(/N=C(\C)C2=C(O)C(=O)N(CCO)C2c2ccc([N+](=O)[O-])cc2)cc1` (stereo not given), the EC50 in test [15] is 0.47 µM (active).

The term IC50 denotes the concentration that gives 50% inhibition. A word on the AC50: it is the concentration giving half of the maximal activity seen. Usually EC50 stands for the midpoint of the concentration-response curve.
